Results as given in ChEMBL document CHEMBL5113392, “Novel hybrid pyrrolidinedione-thiazolidinones as potential anticancer agents: Synthesis and biological evaluation” (Eur J Med Chem, 2022).

Legend:
UO-31 = test: Anticancer activity against human UO-31 cells assessed as total growth inhibition incubated for 48 hrs by SRB assay; format: functional
SF-539 [1] = test: Anticancer activity against human SF-539 cells assessed as growth inhibition incubated for 48 hrs by SRB assay; format: functional
Salmon testes DNA = test: Displacement of methyl green from salmon sperm DNA at 1 uM measured after 2 hrs by fluorescence plate reader method relative to control; format: nucleic-acid assay; settings: Salmo salar
MDA-MB-435 = test: Anticancer activity against human MDA-MB-435 cells assessed as total growth inhibition incubated for 48 hrs by SRB assay; format: functional
NCI/ADR-RES [2] = test: Anticancer activity against human NCI/ADR-RES cells assessed as total growth inhibition incubated for 48 hrs by SRB assay; format: functional
CAKI-1 [3] = test: Anticancer activity against human CAKI-1 cells assessed as total growth inhibition incubated for 48 hrs by SRB assay; format: functional
HCT-15 [4] = test: Anticancer activity against human HCT-15 cells assessed as lethality incubated for 48 hrs by SRB assay; format: functional; settings: read-out: LC50 (the source's name)
EKVX = test: Anticancer activity against human EKVX cells assessed as total growth inhibition incubated for 48 hrs by SRB assay; format: functional
COLO 205 = test: Anticancer activity against human COLO 205 cells assessed as total growth inhibition incubated for 48 hrs by SRB assay; format: functional
OVCAR-5 [5] = test: Anticancer activity against human OVCAR-5 cells assessed as growth inhibition incubated for 48 hrs by SRB assay; format: functional
UACC-62 = test: Anticancer activity against human UACC-62 cells assessed as total growth inhibition incubated for 48 hrs by SRB assay; format: functional
HCT-116 [6] = test: Anticancer activity against human HCT-116 cells assessed as cell growth inhibition incubated for 72 hrs by MTT assay; format: functional
OVCAR-3 [7] = test: Anticancer activity against human OVCAR-3 cells assessed as total growth inhibition incubated for 48 hrs by SRB assay; format: functional
HCT-15 [8] = test: Anticancer activity against human HCT-15 cells assessed as growth inhibition incubated for 48 hrs by SRB assay; format: functional
RXF 393 = test: Anticancer activity against human RXF 393 cells assessed as lethality incubated for 48 hrs by SRB assay; format: functional; settings: read-out: LC50 (the source's name)
HOP-92 [9] = test: Anticancer activity against human HOP-92 cells assessed as total growth inhibition incubated for 48 hrs by SRB assay; format: functional
CCRF-CEM = test: Anticancer activity against human CCRF-CEM cells assessed as lethality incubated for 48 hrs by SRB assay; format: functional; settings: read-out: LC50 (the source's name)
ACHN = test: Anticancer activity against human ACHN cells assessed as total growth inhibition incubated for 48 hrs by SRB assay; format: functional
OVCAR-4 = test: Anticancer activity against human OVCAR-4 cells assessed as total growth inhibition incubated for 48 hrs by SRB assay; format: functional
IGROV-1 = test: Anticancer activity against human IGROV-1 cells assessed as lethality incubated for 48 hrs by SRB assay; format: functional; settings: read-out: LC50 (the source's name)
[10] = Selectivity index, ratio of GI50 for human HaCaT cells to GI50 for human HeLa cells; format: toxicity; settings: HaCaT cells versus HeLa cells, read-out: RatioGI50
HL-60 = test: Anticancer activity against human HL-60 cells assessed as total growth inhibition incubated for 48 hrs by SRB assay; format: functional
CAKI-1 [11] = test: Anticancer activity against human CAKI-1 cells assessed as growth inhibition incubated for 48 hrs by SRB assay; format: functional
Jurkat = test: Anticancer activity against human Jurkat cells assessed as cell growth inhibition incubated for 72 hrs by MTT assay; format: functional
NCI-H226 = test: Anticancer activity against human NCI-H226 cells assessed as total growth inhibition incubated for 48 hrs by SRB assay; format: functional
PC-3 [12] = test: Anticancer activity against human PC-3 cells assessed as lethality incubated for 48 hrs by SRB assay; format: functional; settings: read-out: LC50 (the source's name)
K562 = test: Anticancer activity against human K562 cells assessed as lethality incubated for 48 hrs by SRB assay; format: functional; settings: read-out: LC50 (the source's name)
[13] = Selectivity index, ratio of GI50 for human HaCaT cells to GI50 for human SK-OV-3 cells; format: toxicity; settings: HaCaT cells versus SK-OV-3 cells, read-out: RatioGI50
NCI-H23 = test: Anticancer activity against human NCI-H23 cells assessed as lethality incubated for 48 hrs by SRB assay; format: functional; settings: read-out: LC50 (the source's name)
Hs-578T = test: Anticancer activity against human Hs-578T cells assessed as growth inhibition incubated for 48 hrs by SRB assay; format: functional
OVCAR-5 [14] = test: Anticancer activity against human OVCAR-5 cells assessed as total growth inhibition incubated for 48 hrs by SRB assay; format: functional
NCI-H522 = test: Anticancer activity against human NCI-H522 cells assessed as total growth inhibition incubated for 48 hrs by SRB assay; format: functional
MDA-MB-468 = test: Anticancer activity against human MDA-MB-468 cells assessed as total growth inhibition incubated for 48 hrs by SRB assay; format: functional
NCI/ADR-RES [15] = test: Anticancer activity against human NCI/ADR-RES cells assessed as growth inhibition incubated for 48 hrs by SRB assay; format: functional
SF-268 = test: Anticancer activity against human SF-268 cells assessed as total growth inhibition incubated for 48 hrs by SRB assay; format: functional
SF-295 = test: Anticancer activity against human SF-295 cells assessed as growth inhibition incubated for 48 hrs by SRB assay; format: functional
A549 = test: Anticancer activity against human A549 cells assessed as total growth inhibition incubated for 48 hrs by SRB assay; format: functional
Malme-3M = test: Anticancer activity against human Malme-3M cells assessed as total growth inhibition incubated for 48 hrs by SRB assay; format: functional
OVCAR-3 [16] = test: Anticancer activity against human OVCAR-3 cells assessed as lethality incubated for 48 hrs by SRB assay; format: functional; settings: read-out: LC50 (the source's name)
HOP-92 [17] = test: Anticancer activity against human HOP-92 cells assessed as lethality incubated for 48 hrs by SRB assay; format: functional; settings: read-out: LC50 (the source's name)
NCI-H322M = test: Anticancer activity against human NCI-H322M cells assessed as lethality incubated for 48 hrs by SRB assay; format: functional; settings: read-out: LC50 (the source's name)
HOP-62 = test: Anticancer activity against human HOP-62 cells assessed as growth inhibition incubated for 48 hrs by SRB assay; format: functional
T47D = test: Anticancer activity against human T47D cells assessed as growth inhibition incubated for 48 hrs by SRB assay; format: functional
U-251 = test: Anticancer activity against human U-251 cells assessed as lethality incubated for 48 hrs by SRB assay; format: functional; settings: read-out: LC50 (the source's name)
HCT-116 [18] = test: Anticancer activity against human HCT-116 cells assessed as lethality incubated for 48 hrs by SRB assay; format: functional; settings: read-out: LC50 (the source's name)
SR = test: Anticancer activity against human SR cells assessed as growth inhibition incubated for 48 hrs by SRB assay; format: functional
DU-145 = test: Anticancer activity against human DU-145 cells assessed as lethality incubated for 48 hrs by SRB assay; format: functional; settings: read-out: LC50 (the source's name)
SF-539 [19] = test: Anticancer activity against human SF-539 cells assessed as total growth inhibition incubated for 48 hrs by SRB assay; format: functional
HT-29 = test: Anticancer activity against human HT-29 cells assessed as lethality incubated for 48 hrs by SRB assay; format: functional; settings: read-out: LC50 (the source's name)
PC-3 [20] = test: Anticancer activity against human PC-3 cells assessed as growth inhibition incubated for 48 hrs by SRB assay; format: functional

SMILES: O=C1CC(N2C(=O)/C(=C/C(Cl)=C/c3ccc([N+](=O)[O-])cc3)SC2=S)C(=O)N1c1ccc(Cl)cc1 (stereo not given)
- TGI (UO-31): 3.3 µM
- GI50 (SF-539 [1]): 1.69 µM
- Activity (Salmon testes DNA): 4.3%
- TGI (MDA-MB-435): 3.39 µM
- TGI (NCI/ADR-RES [2]): 6.19 µM
- TGI (CAKI-1 [3]): 3.28 µM
- CC50 (HCT-15 [4]): 77.4 µM
- TGI (EKVX): > 100 µM
- TGI (COLO 205): 3.76 µM
- GI50 (OVCAR-5 [5]): 2.04 µM
- TGI (UACC-62): 4.3 µM
- GI50 (HCT-116 [6]): 9.18 µM
- TGI (OVCAR-3 [7]): 2.62 µM
- GI50 (HCT-15 [8]): 0.599 µM
- CC50 (RXF 393): 5.86 µM
- TGI (HOP-92 [9]): 6.79 µM
- CC50 (CCRF-CEM): > 100 µM
- TGI (ACHN): 3.48 µM
- TGI (OVCAR-4): > 100 µM
- CC50 (IGROV-1): 49.6 µM
- selectivity ratio [10]: 15
- TGI (HL-60): 8.86 µM
- GI50 (CAKI-1 [11]): 1.13 µM
- GI50 (Jurkat): 3.4 µM
- TGI (NCI-H226): 4.65 µM
- CC50 (PC-3 [12]): > 100 µM
- CC50 (K562): 54.9 µM
- selectivity ratio [13]: 1.52
- CC50 (NCI-H23): 15 µM
- GI50 (Hs-578T): 1.8 µM
- TGI (OVCAR-5 [14]): 4.46 µM
- TGI (NCI-H522): 4.36 µM
- TGI (MDA-MB-468): 3.1 µM
- GI50 (NCI/ADR-RES [15]): 1.01 µM
- TGI (SF-268): > 100 µM
- GI50 (SF-295): 1.4 µM
- TGI (A549): > 100 µM
- TGI (Malme-3M): 11.6 µM
- CC50 (OVCAR-3 [16]): 8.89 µM
- CC50 (HOP-92 [17]): > 100 µM
- CC50 (NCI-H322M): > 100 µM
- GI50 (HOP-62): 1.73 µM
- GI50 (T47D): 2.03 µM
- CC50 (U-251): 14.1 µM
- CC50 (HCT-116 [18]): 6.85 µM
- GI50 (SR): 0.544 µM
- CC50 (DU-145): > 100 µM
- TGI (SF-539 [19]): 4.14 µM
- CC50 (HT-29): > 100 µM
- GI50 (PC-3 [20]): 1.34 µM

SMILES: O=C1CC(N2C(=O)/C(=C/C(Cl)=C/c3ccc([N+](=O)[O-])cc3)SC2=S)C(=O)N1c1ccc(O)cc1 (stereo not given)
- TGI (UO-31): 2.79 µM
- GI50 (SF-539 [1]): 1.72 µM
- Activity (Salmon testes DNA): 1.4%
- TGI (MDA-MB-435): 4.34 µM
- TGI (NCI/ADR-RES [2]): 12.1 µM
- TGI (CAKI-1 [3]): 2.42 µM
- CC50 (HCT-15 [4]): 6.09 µM
- TGI (EKVX): 11.7 µM
- TGI (COLO 205): 5.04 µM
- GI50 (OVCAR-5 [5]): 1.91 µM
- TGI (UACC-62): 3.38 µM
- GI50 (HCT-116 [6]): 4.52 µM
- TGI (OVCAR-3 [7]): 1.96 µM
- GI50 (HCT-15 [8]): 0.472 µM
- CC50 (RXF 393): 6.76 µM
- TGI (HOP-92 [9]): 3.72 µM
- CC50 (CCRF-CEM): > 100 µM
- TGI (ACHN): 2.76 µM
- TGI (OVCAR-4): 17.3 µM
- CC50 (IGROV-1): 5.98 µM
- selectivity ratio [10]: 12
- TGI (HL-60): 9.57 µM
- GI50 (CAKI-1 [11]): 1.15 µM
- GI50 (Jurkat): 1.3 µM
- TGI (NCI-H226): 6.82 µM
- CC50 (PC-3 [12]): 8.6 µM
- CC50 (K562): > 100 µM
- selectivity ratio [13]: 0.74
- CC50 (NCI-H23): 7.94 µM
- GI50 (Hs-578T): 2.8 µM
- TGI (OVCAR-5 [14]): 3.7 µM
- TGI (NCI-H522): 4.23 µM
- TGI (MDA-MB-468): 5.7 µM
- GI50 (NCI/ADR-RES [15]): 2.13 µM
- TGI (SF-268): 6.99 µM
- GI50 (SF-295): 1.31 µM
- TGI (A549): 11.4 µM
- TGI (Malme-3M): 5.79 µM
- CC50 (OVCAR-3 [16]): 4.96 µM
- CC50 (HOP-92 [17]): 8.54 µM
- CC50 (NCI-H322M): 24.3 µM
- GI50 (HOP-62): 2.26 µM
- GI50 (T47D): 2.45 µM
- CC50 (U-251): 6.53 µM
- CC50 (HCT-116 [18]): 5.22 µM
- GI50 (SR): 0.394 µM
- CC50 (DU-145): 6.62 µM
- TGI (SF-539 [19]): 3.81 µM
- CC50 (HT-29): > 100 µM
- GI50 (PC-3 [20]): 0.906 µM
